Results on one compound are retold here after US4788202A, “Sulphonamide derivatives as α2 -adrenoceptor antagonists” (John Wyeth & Brother Limited, priority 1985, dated 1988).

The target in one assay is T1, α2 -adrenoceptor (Rattus norvegicus, UniProt P22909).
T1 construct: rat field stimulated vas deferens preparation; from tissue; host or cells: rat vas deferens, field stimulated
T1 sequence (P22909 1-465): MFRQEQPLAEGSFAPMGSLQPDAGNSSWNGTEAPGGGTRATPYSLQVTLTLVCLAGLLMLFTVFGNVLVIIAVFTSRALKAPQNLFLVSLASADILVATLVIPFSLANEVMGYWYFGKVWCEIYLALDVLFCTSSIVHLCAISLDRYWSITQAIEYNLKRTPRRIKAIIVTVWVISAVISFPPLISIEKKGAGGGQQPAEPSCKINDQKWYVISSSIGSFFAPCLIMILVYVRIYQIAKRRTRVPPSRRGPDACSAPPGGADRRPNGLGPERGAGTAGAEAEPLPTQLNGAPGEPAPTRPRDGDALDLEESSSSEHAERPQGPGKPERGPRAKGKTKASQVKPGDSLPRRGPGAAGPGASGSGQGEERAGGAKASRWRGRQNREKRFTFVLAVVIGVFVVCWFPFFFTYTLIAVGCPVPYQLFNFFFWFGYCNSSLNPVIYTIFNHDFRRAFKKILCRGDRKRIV
The assay can be described thus: α2-adrenoceptor antagonistic activity on the rat field stimulated vas deferens preparation (modified method of Drew). The text has this:
(§1) The compounds of the invention may be tested for α2 -adrenoceptor antagonistic activity on the rat field stimulated vas deferens preparation using a modification of the method of Drew, Eur. J. Pharmac., 1977,42, 123-130 as described in our GB patent No. 2136804A Specification and for the α1 -antagonist activity by the method based on that of Gillespie Br. J. Pharmac 1972, 45 404-416, as also described in GB patent specification No. 2136804A.

The next assay has as its target T2, α1 -adrenoceptor (Rattus norvegicus, UniProt P43140).
T2 construct: method based on that of Gillespie Br. J. Pharmac 1972, 45 404-416; from tissue
T2 sequence (P43140 1-466): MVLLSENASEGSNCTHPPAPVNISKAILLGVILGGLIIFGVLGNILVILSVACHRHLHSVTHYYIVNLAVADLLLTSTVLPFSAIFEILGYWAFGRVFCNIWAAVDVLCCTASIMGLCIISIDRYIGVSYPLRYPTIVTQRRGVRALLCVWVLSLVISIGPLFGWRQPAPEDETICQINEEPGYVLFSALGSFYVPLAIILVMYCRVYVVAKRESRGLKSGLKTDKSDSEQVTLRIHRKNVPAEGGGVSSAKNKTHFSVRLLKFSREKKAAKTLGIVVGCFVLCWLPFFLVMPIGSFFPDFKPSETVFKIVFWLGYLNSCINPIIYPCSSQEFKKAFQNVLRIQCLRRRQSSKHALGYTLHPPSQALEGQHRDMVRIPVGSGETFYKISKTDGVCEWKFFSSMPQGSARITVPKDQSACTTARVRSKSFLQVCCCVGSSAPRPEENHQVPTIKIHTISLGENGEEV
Description: α1-adrenoceptor antagonist activity by a method based on that of Gillespie. Conditions: as described in GB 2136804A, read-out: pA2 for α1 -adrenoceptor antagonistic activity (converted).
Description: as §1

For the compound `CS(=O)(=O)NCCN([C@@H]1CCN2CCc3c(oc4ccccc34)[C@@H]2C1)S(C)(=O)=O` (relative stereo) [Example 2, N-[(2β,12bα)-1,3,4,6,7,12b-Hexahydro-2H-benzo[b]furo [2,3-a]quinolizin-2-yl]-N-(2-methanesulphonamidoethyl) methanesulphonamide], the Kb at α2 -adrenoceptor (rat field stimulated vas deferens preparation, read-out: pA2 for α2 -adrenoceptor antagonist activity (converted)) was 8.51 nM; at α1 -adrenoceptor it was 275 nM. At α2 -adrenoceptor (ratio from α2 and α1 pA2 values), the “α2 /α1 selectivity [antilog of (α2 pA2 - α1 pA1)]” value worked out at 32.
